Reference: the supplement of paper PMC10307832

Experiments:
Test in all cases: relative viability (nuclei count vs DMSO), 5 days (fraction); higher = more cells survive
[1] = compound: C1CC2=C(C1)C=C(C=C2)OC3=NC(=C4C(=N3)N(C=N4)CC5=CC=C(C=C5)C6=CC=CC=C6)N[C@@H](CC7=CC=CC=C7)CO [QS11] + Cc1cc(Nc2cc(N3CCN(C)CC3)nc(Sc3ccc(NC(=O)C4CC4)cc3)n2)n[nH]1 [Tozasertib] (partner 0.1 µM)
Method in brief: (§1)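 Each reported value is a median over duplicate plates. It expresses relative viability: treated-well nuclei count divided by vehicle-well nuclei count. Lung cancer cell lines in 1536-well plates were dosed by pin tool a day after seeding, alone with one drug or with a fixed anchor-drug dose plus five library-drug doses (not always all listed) in √10 steps, and nuclei were counted after 5 days.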

[2] = compound: CC1=C(C=C(C=C1)NC(=O)C2=CC(=CC=C2)C(C)(C)C#N)NC3=CC4=C(C=C3)N=CN(C4=O)C [AZ628] + COc1cccc2cc(-c3nc([C@H]4CC[C@H](C(=O)O)CC4)n4ncnc(N)c34)[nH]c12 [OSI-027] (partner 0.5 µM)
Method in brief: as §1

[3] = compound: C[As](C)SC[C@H](NC(=O)CC[C@H](N)C(=O)O)C(=O)NCC(=O)O [Darinaparsin] + C[C@]1(O)C[C@@H](c2nc(-c3ccc4ccc(-c5ccccc5)nc4c3)c3c(N)nccn32)C1 [Linsitinib] (partner 1 µM)
Method in brief: as §1

[4] = compound: C[As](C)SC[C@H](NC(=O)CC[C@H](N)C(=O)O)C(=O)NCC(=O)O [Darinaparsin] + Nc1ncn([C@H]2C[C@H](O)[C@@H](CO)O2)c(=O)n1 [Decitabine] (partner 2 µM)
Method in brief: as §1

Row | Cell Line | relative viability ([1]; first compound 0.08 µM) | relative viability ([1]; first compound 0.253 µM) | relative viability ([1]; first compound 0.8 µM) | relative viability ([1]; first compound 2.53 µM) | relative viability ([1]; first compound 8 µM) | relative viability ([2]; first compound 0.08 µM) | relative viability ([2]; first compound 0.253 µM) | relative viability ([2]; first compound 0.8 µM) | relative viability ([2]; first compound 2.53 µM) | relative viability ([2]; first compound 8 µM) | relative viability ([3]; first compound 0.08 µM) | relative viability ([3]; first compound 0.8 µM) | relative viability ([3]; first compound 2.53 µM) | relative viability ([3]; first compound 8 µM) | relative viability ([4]; first compound 0.08 µM) | relative viability ([4]; first compound 0.8 µM) | relative viability ([4]; first compound 2.53 µM) | relative viability ([4]; first compound 8 µM)
1 | CAL-12T | 0.247 | 0.268 | 0.299 | 0.204 | 0.227 | 0.891 | 0.572 | 0.408 | 0.345 | 0.267 | 1.08 | 0.757 | 0.686 | 0.956 | – | – | – | –
2 | COR-L23 | 0.17 | 0.177 | 0.137 | 0.156 | 0.141 | 0.678 | 0.669 | 0.602 | 0.558 | 0.302 | 1.24 | 0.886 | 0.859 | 1.02 | 0.496 | 0.394 | 0.348 | 0.496
3 | COR-L 105 | 0.364 | 0.296 | 0.335 | 0.391 | 0.336 | 0.751 | 0.837 | 0.795 | 0.763 | 0.46 | 0.992 | 0.844 | – | 0.978 | 0.642 | 0.711 | 0.621 | 0.666
4 | Calu-6 | – | – | – | – | – | – | – | – | – | – | 1.06 | 1.06 | 0.815 | 1.05 | – | – | – | –
5 | ChaGo-K-1 | 0.232 | 0.256 | 0.238 | 0.216 | 0.23 | 0.575 | 0.525 | 0.496 | 0.556 | 0.388 | – | – | – | – | 0.464 | 0.499 | 0.506 | 0.577
6 | EBC-1 | – | – | – | – | – | – | – | – | – | – | 1.12 | 0.942 | 0.864 | 1.15 | – | – | – | –
